Data reported in US11155550B2, “Histone deacetylase inhibitors and methods of use thereof” (Reaction Biology Corp., priority 2018, dated 2021).

Assays:
Human HDAC1 = target: T1, Human HDAC1 (Homo sapiens, UniProt Q13547); assay: Biochemical HDAC enzymatic assay, HDAC1; conditions: incubation time 120 min
T1 construct: full-length with a C-terminal His-tag and a C-terminal FLAG-tag; His-tag (C); FLAG-tag (C); made in house; host or cells: baculovirus expression system
Method: (§1) Incubation time for HDAC1/2 is 120 min, and 10 min for other HDACs.
Human HDAC1 (GenBank Accession No. NM_004964), full-length with a C-terminal His-tag and a C-terminal FLAG-tag, MW=56 kDa, was expressed in a baculovirus expression system.
(§2) • I. Compound handling: Testing compounds were dissolved in 100% DMSO to a specific concentration. The serial dilution was conducted by epMotion 5070 in DMSO. • II. HDAC reaction buffer: 50 mM Tris-HCl, pH8.0, 137 mM NaCl, 2.7 mM KCl, and 1 mM MgCl2, Added fresh: 1 mg/ml BSA, 1% DMSO. • III. Substrate: Fluorogenic HDAC General Substrate for HDAC1, 2, 3, 6, 10, 11 ans Sirt1, 2 and 3: Arg-His-Lys-Lys(Ac); HDAC8 only substrate: Arg-His-Lys(Ac)-Lys(Ac); Class2A Substrate (HDAC4, 5, 7 and 9): Acetyl-Lys(trifluoroacetyl)-AMC; Sirt5 substrate: Ac-Lys(succinyl)-AMC. • IV. General Reaction Procedure: (Standard IC50 determination) • a. Delivered 2× enzyme in wells of reaction plate except No Enzyme (No En) control wells. Add buffer in No En wells. • b. Delivered compounds in 100% DMSO into the enzyme mixture by Acoustic technology (Echo550; nanoliter range). Spin down and pre-incubation. • c. Delivered 2× Substrate Mixture (Fluorogenic HDAC Substrate and co-factor (500 μM of Nicotinamide adenine dinucleotide (NAD^+) in all Sirt assay) in all reaction wells to initiate the reaction. Spin and shake. • d. Incubated for 1-2 hr. at 30° C. with seal. • e. Added Developer with Trichostatin A (or TMP269 or NAD^+) to stop the reaction and to generate fluorescent color. • f. Fluorescence was read (excitatory, 360; emission, 460) using the EnVision Multilabel Plate Reader (Perkin Elmer) • g. Endpoint reading was taken for analysis after the development reaches plateau. • V. Data Analysis: The percentages of enzyme activity (relative to DMSO controls) and IC50 values were calculated using the GraphPad Prism 4 program based on a sigmoidal dose-response equation.
(§3) The inhibitory activities of HDAC of compounds of the invention were determined using biochemical HDAC assays. Compounds were tested at the indicated doses in the biochemical assays of HDAC1, HDAC2, HDAC3, HDAC4, HDAC5, HDAC6, HDAC7, HDAC8, HDAC9, HDAC10, or HDAC11 enzyme. The curve fit and IC50 values were calculated using the GraphPad Prism 4 program based on a sigmoidal dose-response equation.
as §2, with “[…]” for “μM”, “equation. […]” for “equation.”

Human HDAC8 = target: T2, Human HDAC8 (Homo sapiens, UniProt Q9BY41); assay: Biochemical HDAC enzymatic assay, HDAC8; conditions: incubation time 10 min
T2 construct: full-length with a C-terminal His tag, MW=46.4 kDa; His tag (C); made in house; host or cells: baculovirus expression system
T2 sequence (Q9BY41 1-377): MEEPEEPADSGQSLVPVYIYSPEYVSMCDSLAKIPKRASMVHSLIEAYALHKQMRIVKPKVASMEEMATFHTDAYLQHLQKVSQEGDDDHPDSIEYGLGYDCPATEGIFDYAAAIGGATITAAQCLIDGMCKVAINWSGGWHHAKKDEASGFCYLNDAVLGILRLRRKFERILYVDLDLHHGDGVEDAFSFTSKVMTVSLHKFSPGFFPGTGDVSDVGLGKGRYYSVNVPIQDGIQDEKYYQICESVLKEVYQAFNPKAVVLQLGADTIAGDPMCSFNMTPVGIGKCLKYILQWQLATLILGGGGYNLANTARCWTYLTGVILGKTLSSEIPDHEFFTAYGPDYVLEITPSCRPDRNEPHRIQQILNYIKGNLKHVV
Method: as §1
Human HDAC8 (GenBank Accession No. NM_018486), full-length with a C-terminal His tag, MW=46.4 kDa, was expressed in a baculovirus expression system.
as §2, §3
as §2, with “[…]” for “μM”, “equation. […]” for “equation.”

T1 sequence (Q13547 whole entry): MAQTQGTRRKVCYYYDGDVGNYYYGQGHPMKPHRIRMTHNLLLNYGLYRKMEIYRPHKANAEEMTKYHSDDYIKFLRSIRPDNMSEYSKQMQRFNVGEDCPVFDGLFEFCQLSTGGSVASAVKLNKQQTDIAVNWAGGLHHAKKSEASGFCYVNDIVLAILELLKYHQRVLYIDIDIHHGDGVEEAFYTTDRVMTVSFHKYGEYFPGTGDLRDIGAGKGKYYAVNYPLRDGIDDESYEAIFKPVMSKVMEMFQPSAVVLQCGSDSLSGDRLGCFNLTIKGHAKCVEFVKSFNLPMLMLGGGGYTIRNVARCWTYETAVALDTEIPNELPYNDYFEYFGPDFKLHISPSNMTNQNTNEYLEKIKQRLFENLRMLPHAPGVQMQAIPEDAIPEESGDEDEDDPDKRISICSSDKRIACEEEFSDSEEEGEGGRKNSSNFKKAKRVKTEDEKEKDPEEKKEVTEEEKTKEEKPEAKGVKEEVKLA

SMILES | IC50 (Human HDAC1; Table 2) | IC50 (Human HDAC8; Table 2) | IC50 (Human HDAC1; Table 1) | IC50 (Human HDAC8; Table 1)
O=C(NO)c1ccc(CN2C(=O)c3ccccc3C23OCCO3)cc1 [Compound Example 8, N-hydroxy-4-((3-oxospiro[isoindoline-1,2′-[1,3]dioxolan]-2-yl)methyl)benzamide] | 8 µM | 400 nM |  | 
Nc1ccc(-c2ccc(F)cc2)cc1NC(=O)c1ccc(N2CC3(CCOCC3)OC2=O)nc1 [Example 5, N-(4-amino-4′-fluoro-[1,1′-biphenyl]-3-yl)-6-(2-oxo-1,8-dioxa-3-azaspiro[4.5]decan-3-yl)nicotinamide] |  |  | 0.023 µM | > 20000 nM
Nc1cc(F)ccc1NC(=O)c1ccc(CN2C(=O)CCCC23CNC3)cc1 [Example 3, N-(2-amino-4-fluorophenyl)-4-((6-oxo-2,5-diazaspiro[3.5]nonan-5-yl)methyl)benzamide] |  |  | 20 µM | > 10000 nM
CN1CCC2(CC1)CN(c1ccc(C(=O)Nc3cc(-c4cccs4)ccc3N)cn1)C(=O)O2 [Example 4, N-(2-amino-5-(thiophen-2-yl)phenyl)-6-(8-methyl-2-oxo-1-oxa-3,8-diazaspiro[4.5]decan-3-yl)nicotinamide] |  |  | 0.007 µM | > 20000 nM
Nc1ccc(-c2cccs2)cc1NC(=O)c1ccc(CN2C(=O)CCC23CCNCC3)cc1 [Example 2, N-(2-amino-5-(thiophen-2-yl)phenyl)-4-((2-oxo-1,8-diazaspiro[4.5]decan-1-yl)methyl)benzamide] |  |  | 0.014 µM | > 20000 nM
CN(C)C(=O)N1CCC2(CC1)c1ccccc1C(=O)N2Cc1ccc(C(=O)NO)cc1 [Compound Example 11, 2-(4-(hydroxycarbamoyl)benzyl)-N,N-dimethyl-3-oxospiro[isoindoline-1,4′-piperidine]-1′-carboxamide] | > 10 µM | 520 nM |  | 
Nc1ccc(-c2cccs2)cc1NC(=O)c1ccc(CN2C(=O)CCCC23CNC3)cc1 [Example 1, N-(2-amino-5-(thiophen-2-yl)phenyl)-4-((6-oxo-2,5-diazaspiro[3.5]nonan-5-yl)methyl)benzamide] |  |  | 0.006 µM | > 20000 nM
O=C(NO)c1ccc(CN2C(=O)C3(CCOC3)c3ccccc32)cc1 (stereo not shown) [Compound Example 9] | 9.1 µM | 1920 nM |  | 
Nc1ccc(-c2cccs2)cc1NC(=O)c1ccc(N2CC3(CCNCC3)CCC2=O)nc1 [Example 6, N-(2-amino-5-(thiophen-2-yl)phenyl)-6-(3-oxo-2,9-diazaspiro[5.5]undecan-2-yl)nicotinamide] |  |  | 0.085 µM | > 20000 nM
O=C(NO)c1ccc(CN2C(=O)c3ccccc3C23CCN(C2CC2)CC3)cc1 [Compound Example 12, 4-((1′-cyclopropyl-3-oxospiro[isoindoline-1,4′-piperidin]-2-yl)methyl)-N-hydroxybenzamide] | > 10 µM | 1200 nM |  | 
O=C(NO)c1ccc(CN2C(=O)c3ccccc3C23CCNCC3)cc1 [Compound Example 10, N-hydroxy-4-((3-oxospiro[isoindoline-1,4′-piperidin]-2-yl)methyl)benzamide] | 6 µM | 710 nM |  | 
